Experimental data as given in PMC5578959, “Selective LRRK2 kinase inhibition reduces phosphorylation of endogenous Rab10 and Rab12 in human peripheral mononuclear blood cells” (Scientific Reports, 2017).

Columns and labels:
Assay in all cases: KiNativ profiling in human PBMCs
Type in all cases: binding
LOK = tested on: T1, LOK
T1 construct: purchased ActivX Technologies (KiNativ)
How it was run: (§1)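 Compound was applied to living PBMCs at 0.1 µM or 1 µM. Occupancy of kinases was then assessed by KiNativ.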

DGKA = tested on: T2, DGKA; conditions: ATP
T2 construct: purchased ActivX Technologies (KiNativ)
How it was run: as §1

ZAP70 = tested on: T3, ZAP70
T3 construct: purchased ActivX Technologies (KiNativ)
How it was run: as §1

STLK6 = tested on: T4, STLK6
T4 construct: purchased ActivX Technologies (KiNativ)
How it was run: as §1

MAP2K5 = tested on: T5, MAP2K5
T5 construct: purchased ActivX Technologies (KiNativ)
How it was run: as §1

PFTAIRE1 = tested on: T6, PFTAIRE1
T6 construct: purchased ActivX Technologies (KiNativ)
How it was run: as §1

PIP4K2A = tested on: T7, PIP4K2A; conditions: ATP
T7 construct: purchased ActivX Technologies (KiNativ)
How it was run: as §1

p70S6K,p70S6Kb = conditions: ATP Loop
How it was run: as §1

MAP3K4 = tested on: T8, MAP3K4; conditions: Lys2
T8 construct: purchased ActivX Technologies (KiNativ)
How it was run: as §1

Wnk1,Wnk2 = conditions: ATP Loop
How it was run: as §1

JAK1 domain2 = tested on: T9, JAK1 domain2
T9 construct: JAK1 domain2; purchased ActivX Technologies (KiNativ)
How it was run: as §1

CaMK2d = tested on: T10, CaMK2d; conditions: Lys1
T10 construct: purchased ActivX Technologies (KiNativ)
How it was run: as §1

IRAK3 = tested on: T11, IRAK3; conditions: Lys1
T11 construct: purchased ActivX Technologies (KiNativ)
How it was run: as §1

PKD2 = tested on: T12, PKD2; conditions: Lys1
T12 construct: purchased ActivX Technologies (KiNativ)
How it was run: as §1

ILK = tested on: T13, ILK
T13 construct: purchased ActivX Technologies (KiNativ)
How it was run: as §1

FYN,SRC,YES = conditions: Activation Loop
How it was run: as §1

For Cn1cc(-c2c[nH]c3ncnc(N4CCOCC4)c23)cc1C#N [PFE-360], the “% Inhibition” value (LOK; 0.1µM, ATP Loop) was 26.9%, the “% Inhibition” value (LOK; 0.1µM, Lys1) was 5.3% and the “% Inhibition” value (LOK; 0.1µM, Lys2) was -2.3%. The “% Inhibition” value (LOK; 1µM, ATP Loop) was 29.8%, the “% Inhibition” value (LOK; 1µM, Lys1) was 39.7% and the “% Inhibition” value (LOK; 1µM, Lys2) was 22.4%. The “% Inhibition” value (DGKA; 0.1µM) was 1.4%, the “% Inhibition” value (DGKA; 1µM) was -4.5% and the “% Inhibition” value (ZAP70; 0.1µM, Activation Loop) was -0.7%. The “% Inhibition” value (ZAP70; 0.1µM, Lys1) was 0.4%, the “% Inhibition” value (ZAP70; 1µM, Activation Loop) was -9.8% and the “% Inhibition” value (ZAP70; 1µM, Lys1) was -5.9%. For the same molecule, the “% Inhibition” value (STLK6; 0.1µM, Lys1) was -3.3%, the “% Inhibition” value (STLK6; 0.1µM, Lys2) was 11.8% and the “% Inhibition” value (STLK6; 1µM, Lys1) was -20.6%. The “% Inhibition” value (STLK6; 1µM, Lys2) was -10.2%, the “% Inhibition” value (MAP2K5; 0.1µM, Lys1) was 4.7% and the “% Inhibition” value (MAP2K5; 0.1µM, Lys2) was -4.6%. The “% Inhibition” value (MAP2K5; 1µM, Lys1) was -10.3%, the “% Inhibition” value (MAP2K5; 1µM, Lys2) was 31.9% and the “% Inhibition” value (PFTAIRE1; 0.1µM, Lys1) was 1.9%. For the same molecule, the “% Inhibition” value (PFTAIRE1; 0.1µM, Lys2) was -4%, the “% Inhibition” value (PFTAIRE1; 1µM, Lys1) was -2% and the “% Inhibition” value (PFTAIRE1; 1µM, Lys2) was -1.5%. The “% Inhibition” value (PIP4K2A; 0.1µM, peptide AKELPTLKDNDFINEGQK) was -3.9%, the “% Inhibition” value (PIP4K2A; 0.1µM, peptide YIIKTITSEDVAEMHNILK) was -34.5% and the “% Inhibition” value (PIP4K2A; 1µM, peptide AKELPTLKDNDFINEGQK) was -16.3%. For the same molecule, the “% Inhibition” value (PIP4K2A; 1µM, peptide YIIKTITSEDVAEMHNILK) was -40%, the “% Inhibition” value (p70S6K,p70S6Kb; 0.1µM) was -0.2% and the “% Inhibition” value (p70S6K,p70S6Kb; 1µM) was 13.2%. The “% Inhibition” value (MAP3K4; 0.1µM) was -0.3%, the “% Inhibition” value (MAP3K4; 1µM) was -7.3% and the “% Inhibition” value (Wnk1,Wnk2; 0.1µM) was -5.4%. The “% Inhibition” value (Wnk1,Wnk2; 1µM) was -15.3%, the “% Inhibition” value (JAK1 domain2; 0.1µM, Activation Loop) was -1.9% and the “% Inhibition” value (JAK1 domain2; 0.1µM, Lys1) was 0%. For the same molecule, the “% Inhibition” value (JAK1 domain2; 1µM, Activation Loop) was -10.1%, the “% Inhibition” value (JAK1 domain2; 1µM, Lys1) was -13.8% and the “% Inhibition” value (CaMK2d; 0.1µM) was 0.1%. For the same molecule, the “% Inhibition” value (CaMK2d; 1µM) was -3%, the “% Inhibition” value (IRAK3; 0.1µM) was -1.2% and the “% Inhibition” value (IRAK3; 1µM) was 3%. The “% Inhibition” value (PKD2; 0.1µM) was 3.7%, the “% Inhibition” value (PKD2; 1µM) was -5.1% and the “% Inhibition” value (ILK; 0.1µM, Lys1) was 4.8%. For the same molecule, the “% Inhibition” value (ILK; 0.1µM, Protein Kinase Domain) was -4%, the “% Inhibition” value (ILK; 1µM, Lys1) was 6.2% and the “% Inhibition” value (ILK; 1µM, Protein Kinase Domain) was 26%. For the same molecule, the “% Inhibition” value (FYN,SRC,YES; 0.1µM) was -0.7% and the “% Inhibition” value (FYN,SRC,YES; 1µM) was 8.2%.
